Entries after “also recorded” stand apart in the source; their conditions may differ.
How the values were obtained:
[1] = in vivo; cited from earlier work
AT84 tumors = assay: AT84 orthotopic head and neck tumor study; format: in vivo, C3H mice; details: intratumoral 300 μg GA, 75 μg CpG or R4 every three days x5; anti-PD-1 250 μg i.p. every three days
Excerpt: AT84 cells were derived from a spontaneous sarcomatoid carcinoma in the oral mucosa of a C3H mouse and were graciously donated by Aldo Venuti (Regina Elena National Cancer Institute, Rome, Italy). Cells tested negative for interspecies contamination (Idexx BioResearch) and rodent pathogens (21 pathogen IMPACT I PCR profile), and negative for Mycoplasm contamination prior to animal studies (Lonza, MycoAlert test kit). Idexx CellCheck STR (short tandem repeat) profile: MCA-4-2: 20.3, 21.3; MCA-5-5: 15; MCA-6-4: 18, 19; MCA-6-7: 12; MCA-9-2: 15; MCA-12-1: 16; MCA-15-3: 25.3, 26.3; MCA-18-3: 16; MCA-X-1: 26, 27.
4% mannitol was prepared by dissolving D-mannitol (Fisher BioReagents® #M120, Fair Lawn, NJ) in molecular biology grade water (Corning #46-000, Manassas, VA) and sterile filtered through a 0.22 μm PES membrane filter (Millex®-GP #SLGPR33RS, Merck Millipore Ltd., Tullagreen, Carrigtwohill). 1 ml syringe stocks of 20 mg/mL GA (Copaxone®, TEVA Neuroscience, Inc., Overland Park, KS) were donated by The University of Kansas Medical Center. CpG ODN 1826 was purchased from InvivoGen (#tlrl-1826, San Diego, CA) and was resuspended in LAL water to obtain 3.17 mg/mL (500 μM) stocks following manufacture's protocol. All subsequent dilutions were performed using 4% mannitol. R4 polyplexes were prepared as previously described (Pressnall et al). […]

EO771 tumors = assay: EO771 triple negative breast cancer model, GA dose escalation with anti-PD1; set-up: species or system C57BL/6 mice; details: mouse, in vivo
Description: GA was evaluated for its intratumoral efficacy and dose dependency in tumors alone and in combination with systemic anti-PD1 in the murine Triple negative breast cancer model EO771. EO771 cells were implanted to C57BL/6 mice on Day 0. In this study, two doses of intraperitoneal anti-PD1 (100 μg or 250 μg) and three doses of intratumoral GA (300 μg, 1 mg, 2 mg) were evaluated. Primary tumors were measured by caliper measurement. Tumor volumes were calculated according to the formula, tumor volume (mm^3)=0.52×(width)^2 ×length, where length is the longer of two perpendicular dimensions.

[2] = test system: 28 immune related proteins; assay: GeoMx digital spatial profiling, biopsy vs resected treated tumor; format: in vivo, human
Description: GeoMx DSP analysis: Digital spatial profiling of pre-and post-treatment formalin-fixed, paraffin embedded (FFPE) tumor tissue was performed using the GeoMx DSP platform (NanoString Technologies) to measure levels of 28 protein markers associated with immune oncology. Specifically, the immune cell profiling core protein module and IO drug target protein module were used for this analysis following manufacturer's protocol for staining, hybridization, collection, detection (nCounter based-counting), and data normalization. Briefly, this entailed an initial pathologist review of hematoxylin and eosin-stained sections by a pathologist at KUMC to verify presence of tumor cells within the FFPE block. Next, a 5 μm-think unstained FFPE slide was subjected to a cocktail of primary antibodies conjugated with unique DNA-oligonucleotide moieties attached with a light sensitive photocleavable linker. Within this cocktail were also anti-pan-cytokeratin (included with GeoMx assay and used for the basal cell carcinoma and squamous cell carcinoma samples) or anti-MART-1 (Novus Biologicals, catalog #NBP2-46603AF647 used for targeting epithelium in melanoma samples), CD45 (for targeting immune cells) and Syto-13 (used as a nuclear stain). These fluorescently labeled antibodies were used for imaging and identifying the regions of interest (ROIs) followed by segmentation into tumor cells and immune cells for independent collection from each ROI into individual wells of a 96-well plate followed by digital quantification using the NanoString nCounter platform. The GeoMx DSP Analysis Suite version 2.4 was used to perform data QC, normalization, and statistical analysis following guidance by NanoString field scientists. For analysis of similar cell populations (i.e., expression levels only in epithelial cells or only in immune cells), the geometric mean of housekeeping proteins GAPDH, Histone H3, and S6 was used for normalization. When different cell populations were being analyzed (i.e., expression levels in epithelial versus immune cells), the geometric mean of the signal-to-noise ratio of negative control mouse and rabbit isotype IgG controls was used for background correction prior.
The GeoMx Digital Spatial Profiling (DSP) platform (NanoString) was used to profile 28 immune related proteins. This platform allows users to perform nondestructive interrogation of formalin-fixed paraffin embedded (FFPE) tissue (among other tissue types) for multiplexed spatial profiling of immunooncology-related proteins to assess tumor cells and their microenvironment. The GeoMx platform uses a cocktail of antibodies conjugated to photocleavable DNA-barcoded oligos to provide high multiplex capacity and the use of guided ultraviolet light exposure (by way of adjustable 1 million micromirrors) provides a high degree of flexibility in selection of regions of interest for study. DSP technology and the GeoMx platform have been extensively reviewed.
Using the GeoMx DSP platform, we performed in situ digital spatial profiling of tissue specimens collected from the COPAX trial patients before and after treatment to measure levels of 28 proteins (Immune cell profiling panel, and the IO drug target panel). After a pathologist review of H&E-stained tissue specimens to assess presence of tumor cells, GeoMx DSP analysis was performed on a serial unstained slide for each sample. Regions of interest (ROIs) which encompassed both tumor and immune cells were selected either by free-hand drawing using the polygon tool or using a standard circle. The ROIs were further segmented into tumor cells and immune cells based on the staining pattern of morphology markers (pan-cytokeratin and CD45 for the carcinomas and MARTI and CD45 for the melanomas). Following segmentation, the DNA bar codes corresponding to each target in the antibody cocktail were collected by the instrument. […]

In the case of Glatiramer acetate [GA], the localization after injection [1] is given as “primarily localized at the site of injection”, the tumor growth (AT84 tumors) is given as “no effect” and the “systemic cytokines associated with cytokine release syndrome” value (EO771 tumors) is given as “does not induce systemic cytokines typically associated with cytokine release syndrome”. For the same substance, the “patients with CD56 upregulated” value ([2]; Table B patients) was 2 patients, the “patients with PD-L1 upregulated” value ([2]; Table B patients) was 3 patients and the “Gene expression (upregulated post-treatment)” value (“Gene expression” below) ([2]; patient BCCa-Left Nasal Ala, 2 Copaxone injections) was “CD56, CD11c,”. For the same substance, the “Gene expression” value ([2]; patient BCCa-Right Post. Neck, 2 Copaxone injections) was “VISTA, GITR”, the “Gene expression” value ([2]; patient SCCa-Right Cheek, 1 Copaxone injection) was “CD45, CD3,; also recorded: OX401, GITR,” and the “immune marker expression after treatment (GeoMx, overall)” value ([2]; patients, biopsy vs resected treated tumor, listed as Copaxone®) was “immunostimulatory effect at the intratumoral injection site; also recorded: Several patients exhibited upregulated expression of genes that encode targets for checkpoint inhibitor therapy; also recorded: upregulated markers of stimulatory immune activity; also recorded: Immune markers including hallmarks of T cell recruitment and activation were upregulated in tumors”.
